The source of these data is US9469615B2, “Quinoxalines and AZA-quinoxalines as CRTH2 receptor modulators” (Merck Sharp & Dohme Corp., priority 2010, dated 2016).

The test concerns the target T1, hCRTH2 (Homo sapiens, UniProt Q9Y5Y4).
T1 construct: expressed in transfected cells; host or cells: HEK (human embryonic kidney) cells expressing hCRTH2; membrane preparation
T1 sequence (Q9Y5Y4 1-395): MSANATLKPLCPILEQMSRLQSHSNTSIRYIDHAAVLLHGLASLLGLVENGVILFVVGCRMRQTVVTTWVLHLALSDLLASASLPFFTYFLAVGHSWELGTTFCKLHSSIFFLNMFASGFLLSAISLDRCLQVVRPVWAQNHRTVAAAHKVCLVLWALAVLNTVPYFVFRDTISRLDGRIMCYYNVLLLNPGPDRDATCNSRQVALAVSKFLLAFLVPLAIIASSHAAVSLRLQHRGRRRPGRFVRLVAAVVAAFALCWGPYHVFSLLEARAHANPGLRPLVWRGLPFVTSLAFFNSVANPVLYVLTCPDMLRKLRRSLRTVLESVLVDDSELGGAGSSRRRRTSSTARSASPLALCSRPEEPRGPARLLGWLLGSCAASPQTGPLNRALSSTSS
The test can be described thus: Radioligand binding assay ([3H]PGD2 competition, HEK-hCRTH2 membranes). An outline of the steps: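 Membranes (8-20 μg protein) from HEK-hCRTH2 cells were incubated 60 min at room temperature with 3.0 nM [3H]PGD2 in 50 mM Tris-HCl pH 7.4, 1 mM EDTA, 2 mM MnCl2, 1% DMSO. Non-specific binding defined with 10 μM PGD2. Bound radioactivity counted after filtration.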

The mark [1] stands for this setting: [3H]PGD2 binding, rated A-E (Table A).

By Ki is commonly meant the equilibrium dissociation constant of an inhibitor or competing ligand from its target. Higher therefore signals weaker binding. For `C[C@@H]1CN(C(=O)c2ccc3nc(-c4ccc(Cl)cc4)c(CCCCC(=O)O)nc3c2)[C@@H](C)CN1c1ccccc1` [compound 672, 5-(3-(4-chlorophenyl)-7-((2S,5R)-2,5-dimethyl-4-phenylpiperazine-1-carbonyl)quinoxalin-2-yl)pentanoic acid], the inhibition constant Ki ([3H]PGD2 competition, Table B) lay in the range of 20.1 to 200 nM.
`C[C@H](NC(=O)c1ccc2nc(-c3ccc(Cl)cc3)c(CCc3cc(F)cc(CC(=O)O)c3)nc2c1)c1ccc(F)cc1` [compound 450, (S)-2-(3-(2-(3-(4-chlorophenyl)-7-((1-(4-fluorophenyl)ethyl)carbamoyl)quinoxalin-2-yl)ethyl)-5-fluorophenyl)acetic acid] displayed a Ki ([3H]PGD2 competition, Table B) of 2.1 to 20 nM.
The molecule `N#CC1(c2ccccc2)CCN(C(=O)c2ccc3nc(-c4ccc(Cl)cc4)c(CCCCC(=O)O)nc3c2)CC1` [16AK, 3-(4-chlorophenyl)-7-[(4-cyano-4-phenyl-1-piperidinyl)carbonyl]-2-quinoxalinepentanoic acid] yielded an inhibition constant (Ki) under setting [1] of 0.1 to 2 nM.
Regarding `O=C(O)CCCCc1nc2cc(C(=O)N3CC(c4ccc(F)c(F)c4)C3)ccc2nc1-c1ccccc1` [compound 249, 7-[[3-(3,4-difluorophenyl)-1-azetidinyl]carbonyl]-3-phenyl-2-quinoxalinepentanoic acid], the Ki under setting [1] lay within 0.1 to 2 nM.
As to `CN1CC2(CCN(C(=O)c3ccc4nc(-c5ccc(Cl)cc5)c(CCCCC(=O)O)nc4c3)CC2)CC1=O` [compound 349, 5-(3-(4-chlorophenyl)-7-(2-methyl-3-oxo-2,8-diazaspiro[4.5]decane-8-carbonyl)quinoxalin-2-yl)pentanoic acid], the Ki ([3H]PGD2 competition, Table B) was in the range of 20.1 to 200 nM.
In the case of `Cc1ccc([C@H](C)NC(=O)c2ccc3nc(-c4ccccc4)c(CCCCC(=O)O)nc3c2)cc1` [15BC, 5-(7-{[(1S)-1-(4-methylphenyl)ethyl]carbamoyl}-3-phenylquinoxalin-2-yl)pentanoic acid], the Ki under setting [1] fell in the range of 2.1 to 20 nM.
Turning to `O=C(O)CCCCc1nc2cc(C(=O)NCc3ccc(Cl)cc3)ccc2nc1-c1ccc(C(F)(F)F)cc1` [compound 155, 7-[[[(4-chlorophenyl)methyl]amino]carbonyl]-3-[4-(trifluoromethyl)phenyl]-2-quinoxalinepentanoic acid], the Ki under setting [1] lay within 2.1 to 20 nM.
Take `C[C@@H](NC(=O)c1ccc2nc(-c3ccc(F)cc3)c(CCCCC(=O)O)nc2c1)c1ccc(F)c2ccccc12` [compound 572, (R)-5-(7-((1-(4-fluoronaphthalen-1-yl)ethyl)carbamoyl)-3-(4-fluorophenyl)quinoxalin-2-yl)pentanoic acid]: the Ki ([3H]PGD2 competition, Table B) was 20.1 to 200 nM.
Molecule `O=C(NCc1cccc(Cl)c1)c1ccc2nc(-c3ccccc3)c(CCCc3nnn[nH]3)nc2c1` [compound 22] came in with a Ki under setting [1] of 20.1 to 200 nM.
In the case of `CN(C(=O)c1ccc2nc(-c3ccccc3)c(CCCCC(=O)O)nc2c1)[C@@H]1CCCc2cc(Cl)ccc21` [compound 380, (R)-5-(7-((6-chloro-1,2,3,4-tetrahydronaphthalen-1-yl)(methyl)carbamoyl)-3-phenylquinoxalin-2-yl)pentanoic acid], the inhibition constant Ki ([3H]PGD2 competition, Table B) lay in the range of 2.1 to 20 nM.
For the molecule `C[C@@H](NC(=O)c1ccc2nc(-c3ccccc3)c(CCCCC(=O)O)nc2c1)c1cccc2ncccc12` [compound 639, (R)-5-(3-phenyl-7-((1-(quinolin-5-yl)ethyl)carbamoyl)quinoxalin-2-yl)pentanoic acid], the Ki ([3H]PGD2 competition, Table B) fell in the range of 20.1 to 200 nM.
The same measure, in the same setting: then `Cc1ccc(CNC(=O)c2ccc3nc(-c4ccccc4)c(CCCC(F)(F)C(=O)O)nc3c2)cc1` [compound 444], with 20.1 to 200 nM.
`CC(CCCc1nc2cc(C(=O)N[C@@H](C)c3ccc(F)cc3)ccc2nc1-c1ccc(Cl)cc1)C(=O)O` (stereo partly drawn) [compound 167, 3-(4-chlorophenyl)-7-[[[1(S)-(4-fluorophenyl)ethyl]amino]carbonyl]-alpha-methyl-2-quinoxalinepentanoic acid] came in with an inhibition constant (Ki) under setting [1] of 2.1 to 20 nM.
`CC(CCc1nc2cc(C(=O)NCc3ccc(C#N)cc3)ccc2nc1-c1ccc(C(F)(F)F)cc1)CC(=O)O` (stereo not drawn) [17Z, 7-[[[(4-cyanophenyl)methyl]amino]carbonyl]-beta-methyl-3-[4-(trifluoromethyl)phenyl]-2-quinoxalinepentanoic acid] gave a Ki under setting [1] of 2.1 to 20 nM.
As for `O=C(O)CCCNc1nc2cc(C(=O)N3CCC(c4ccc(Cl)cc4)CC3)ccc2nc1-c1ccccc1` [44K, 4-((7-(4-(4-chlorophenyl)piperidine-1-carbonyl)-3-phenylquinoxalin-2-yl)amino)butanoic acid], the Ki under setting [1] was 0.1 to 2 nM.
In the case of `CS(=O)(=O)c1ccc(-c2nc3ccc(C(=O)N4CCC(c5ccccc5)CC4)cc3nc2CCCCC(=O)O)cc1` [26X], under setting [1], the Ki is 20.1 to 200 nM.
In turn, `CN(Cc1ccc(F)cc1)C(=O)c1ccc2nc(-c3ccc(F)cc3)c(CCCc3cccc(CC(=O)O)c3)nc2c1` [compound 275, 2-(3-(3-(7-((4-fluorobenzyl)(methyl)carbamoyl)-3-(4-fluorophenyl)quinoxalin-2-yl)propyl)phenyl)acetic acid] had an inhibitory constant (Ki) ([3H]PGD2 competition, Table B) of 20.1 to 200 nM.
On to `O=C(O)CCCCc1nc2cc(C(=O)NCc3ccccc3Cl)ccc2nc1-c1ccccc1` [15V, 5-{7-[(2-chlorobenzyl)carbamoyl]-3-phenylquinoxalin-2-yl}pentanoic acid], for which, under setting [1], the Ki was 0.1 to 2 nM.
`O=C(O)CCCCc1nc2cc(C(=O)N[C@H](c3ccccc3)C(F)(F)F)ccc2nc1-c1ccccc1` [15G, 5-(3-phenyl-7-{[(1R)-2,2,2-trifluoro-1-phenylethyl]carbamoyl}quinoxalin-2-yl) pentanoic acid]: the Ki under setting [1] is 2.1 to 20 nM.
For `N#Cc1ccccc1N1CCN(C(=O)c2ccc3nc(-c4ccc(F)cc4)c(CCCCC(=O)O)nc3c2)CC1` [compound 359, 5-(7-(4-(2-cyanophenyl)piperazine-1-carbonyl)-3-(4-fluorophenyl)quinoxalin-2-yl)pentanoic acid], the Ki ([3H]PGD2 competition, Table B) fell in the range of 2.1 to 20 nM.
For the setting “[3H]PGD2 competition, Table B”, `O=C(O)CCCCc1nc2cc(C(=O)N3CCC(c4ccc(Cl)cc4)CC3)ccc2nc1-c1ccc(Cl)cc1` [compound 415, 5-(3-(4-chlorophenyl)-7-(4-(4-chlorophenyl)piperidine-1-carbonyl)quinoxalin-2-yl)pentanoic acid] showed a Ki of 0.1 to 2 nM.
`C[C@H](CCc1nc2cc(C(=O)N[C@@H](C)c3ccc(F)cc3)ccc2nc1-c1ccccc1)CC(=O)O` [compound 279, (R)-5-(7-(((S)-1-(4-fluorophenyl)ethyl)carbamoyl)-3-phenylquinoxalin-2-yl)-3-methylpentanoic acid] had a Ki ([3H]PGD2 competition, Table B) of 20.1 to 200 nM.
As for `O=C(O)CCCCc1nc2cc(C(=O)N[C@@H]3COc4cc(F)ccc43)ccc2nc1-c1ccc(Cl)cc1` [compound 314, (S)-5-(3-(4-chlorophenyl)-7-((6-fluoro-2,3-dihydrobenzofuran-3-yl)carbamoyl)quinoxalin-2-yl)pentanoic acid], the Ki ([3H]PGD2 competition, Table B) lay in the range of 2.1 to 20 nM.
As for `C[C@@H](CCCc1nc2cc(C(=O)N[C@@H]3CCc4cc(F)ccc43)ccc2nc1-c1ccc(F)cc1)C(=O)O` [compound 523, (S)-5-(7-(((R)-5-fluoro-2,3-dihydro-1H-inden-1-yl)carbamoyl)-3-(4-fluorophenyl)quinoxalin-2-yl)-2-methylpentanoic acid], the Ki ([3H]PGD2 competition, Table B) lay within 2.1 to 20 nM.
In the case of `O=C(O)CCCCc1nc2cc(C(=O)N[C@@H]3COc4ccccc43)ccc2nc1-c1ccccc1` [compound 573, (S)-5-(7-((2,3-dihydrobenzofuran-3-yl)carbamoyl)-3-phenylquinoxalin-2-yl)pentanoic acid], the Ki ([3H]PGD2 competition, Table B) fell in the range of 2.1 to 20 nM.
The same measure, in the same setting: under `Cn1cc(N2CCN(C(=O)c3ccc4nc(-c5ccc(Cl)cc5)c(CCCCC(=O)O)nc4c3)CC2)cn1` [compound 671, 5-(3-(4-chlorophenyl)-7-(4-(1-methyl-1H-pyrazol-4-yl)piperazine-1-carbonyl)quinoxalin-2-yl)pentanoic acid] stands 20.1 to 200 nM.
In turn, `O=C(O)CCCCc1nc2cc(C(=O)NCc3cccc(OC(F)(F)F)c3)ccc2nc1-c1ccc(Cl)cc1` [16AC, 3-(4-chlorophenyl)-7-[[[[3-(trifluoromethoxy)phenyl]methyl]amino]carbonyl]-2-quinoxalinepentanoic acid] had a Ki under setting [1] of 0.1 to 2 nM.
Still for that read-out and setting: then `O=C(O)CCCNc1nc2cc(C(=O)N3CCN(c4ccccc4)CC3)ccc2nc1-c1ccccc1` [44F, 4-((3-phenyl-7-(4-phenylpiperazine-1-carbonyl)quinoxalin-2-yl)amino)butanoic acid], with 2.1 to 20 nM.
`C[C@@H](NC(=O)c1ccc2nc(-c3ccc(Cl)cc3)c(CCCCC(=O)O)nc2c1)c1ccc(F)c(F)c1` [compound 374, (R)-5-(3-(4-chlorophenyl)-7-((1-(3,4-difluorophenyl)ethyl)carbamoyl)quinoxalin-2-yl)pentanoic acid]: the Ki ([3H]PGD2 competition, Table B) lay within 0.1 to 2 nM.
For `O=C(O)CCCCc1nc2cc(C(=O)N3CC(c4cccc(F)c4)C3)ccc2nc1-c1ccc(Cl)cc1` [compound 419, 5-(3-(4-chlorophenyl)-7-(3-(3-fluorophenyl)azetidine-1-carbonyl)quinoxalin-2-yl)pentanoic acid], the Ki ([3H]PGD2 competition, Table B) fell in the range of 0.1 to 2 nM.
In the case of `O=C(O)CCCCc1nc2cc(C(=O)N[C@@H]3c4ccccc4C[C@@H]3O)ccc2nc1-c1ccc(F)cc1` [compound 509, 5-(3-(4-fluorophenyl)-7-(((1R,2S)-2-hydroxy-2,3-dihydro-1H-inden-1-yl)carbamoyl)quinoxalin-2-yl)pentanoic acid], under “[3H]PGD2 competition, Table B”, the inhibition constant Ki fell in the range of 20.1 to 200 nM.
